SMILES strings stand for the structures.

The target of assay [1] is cGMP-specific 3',5'-cyclic phosphodiesterase (Homo sapiens, UniProt O76074). As to the kind of experiment: Inhibitory activity against human platelet Phosphodiesterase 5 (PDE5).
The target of another assay is Phosphodiesterase 1 (Bos taurus, UniProt Q01061+P14100). As to the kind of experiment: Inhibition of bovine heart Phosphodiesterase 1 (PDE1). It is filed as protein assay.
In another assay the target is Phosphodiesterase 3 (Homo sapiens, UniProt Q14432+Q13370). Description: Inhibition of human platelet Phosphodiesterase 3.
Assay [2] in a line: Ratio of IC50 against human platelet PDE5 to that against bovine retina PDE6.
The target in a further assay is Phosphodiesterase 6. As to the kind of experiment: Inhibitory concentration against bovine retina phosphodiesterase 6 activity. The assay is classed as tissue-based.

A word on the IC50: it is the concentration needed to halve the response being measured. A higher IC50 goes with weaker potency. Regarding `CC(C)Cn1c(=O)n(C)c(=O)c2[nH]c(-c3ccccc3O)nc21`, in assay [1], the IC50 was > 10000 nM. On to `CCOc1ccc(S(=O)(=O)N2CCN(C)CC2)cc1-c1nc2c(=O)[nH]c(=O)n(CC(C)C)c2[nH]1`, for which the values for the IC50 (on Phosphodiesterase 1; in assay [1]; against Phosphodiesterase 3) were > 10000 nM, 315 nM and > 10000 nM, respectively. Compound `CCOc1ccc(S(=O)(=O)N2CCN(CCN(C)C)CC2)cc1-c1nc2c([nH]1)c(=O)n(C)c(=O)n2CC(C)C` returned an IC50 in assay [1] of 63 nM. Turning to `CC(C)Cn1c(=O)n(C)c(=O)c2[nH]c(-c3ccccc3OCc3ccccc3)nc21`, the IC50 in assay [1] was > 10000 nM. For the compound `CC(C)Cn1c(=O)n(C)c(=O)c2[nH]c(-c3ccccc3N(C)C)nc21`, in assay [1], the IC50 was > 10000 nM.

For the compound `CCCOc1ccc(S(N)(=O)=O)cc1-c1nc2c(=O)n(C)c(=O)n(CC(C)C)c2[nH]1`, in assay [2], the Ratio worked out at 3. Moreover, the IC50 on Phosphodiesterase 6 was determined as 16 nM. Consider `CC(C)COc1ccccc1-c1nc2c(=O)n(C)c(=O)n(CC(C)C)c2[nH]1`, for which the Ratio in assay [2] is 0.7. The IC50 against Phosphodiesterase 6 is 73 nM.

In the case of `CSc1ccccc1-c1nc2c(=O)n(C)c(=O)n(CC(C)C)c2[nH]1`, in assay [1], half-maximal inhibition (IC50) was put at 5420 nM. Consider `CCCOc1ccc(S(=O)(=O)N2CCN(CCN(C)C)CC2)cc1-c1nc2c([nH]1)c(=O)n(C)c(=O)n2CC(C)C`, for which the IC50 in assay [1] came to 24 nM. As to `CCCOc1ccc(S(=O)(=O)N(CC)CCN(C)C)cc1-c1nc2c(=O)n(C)c(=O)n(CC(C)C)c2[nH]1`, the Ratio in assay [2] was 22. Moreover, the values for the half-maximal inhibitory concentration (IC50) (in assay [1]; against Phosphodiesterase 6) were 11 nM and 242 nM, respectively.

With `CCOc1ccc(S(=O)(=O)N2CCN(CCN(C)C)CC2)cc1-c1nc2c(=O)n(C)c(=O)n(CC(C)C)c2[nH]1`, the Ratio in assay [2] worked out at 2.5. Besides, the IC50 on Phosphodiesterase 6 was found to be 146 nM. `COCCOc1ccccc1-c1nc2c([nH]1)c(=O)n(C)c(=O)n2CC(C)C` yielded an IC50 in assay [1] of 1500 nM.

As to `CC(C)Cn1c(=O)n(C)c(=O)c2[nH]c(-c3ccccc3)nc21`, in assay [1], the IC50 was > 10000 nM. On to `CCCOc1ccc(S(=O)(=O)N2CCN(CCOC)CC2)cc1-c1nc2c(=O)n(C)c(=O)n(CC(C)C)c2[nH]1`, for which the Ratio in assay [2] was found to be 7.5. On Phosphodiesterase 6, the half-inhibitory concentration (IC50) is 91 nM. On to `CCOc1ccc(S(=O)(=O)N2CCN(CCO)CC2)cc1-c1nc2c(=O)n(C)c(=O)n(CC(C)C)c2[nH]1`, for which the Ratio in assay [2] was 3.5. On Phosphodiesterase 6, this compound registered an IC50 of 68 nM.

`CC(C)COc1ccc(S(=O)(=O)N2CCN(C)CC2)cc1-c1nc2c(=O)n(C)c(=O)n(CC(C)C)c2[nH]1`: in assay [2], the Ratio came to 1.1. At Phosphodiesterase 6, this compound gave an IC50 of 102 nM. Consider `CCCOc1ccc(S(=O)(=O)N2CCN(C)CC2)cc1-c1nc2c(=O)n(C)c(=O)n(CC(C)C)c2[nH]1`, for which the Ratio in assay [2] stood at 0.6. In addition, the IC50 in assay [1] amounted to 10 nM; against Phosphodiesterase 6, 6 nM. `CCCOc1ccc(S(=O)(=O)N2CCN(CC)CC2)cc1-c1nc2c([nH]1)c(=O)n(C)c(=O)n2CC(C)C` displayed a half-inhibitory concentration (IC50) in assay [1] of 5.5 nM. In turn, `CCCCCCn1c(=O)n(C)c(=O)c2[nH]c(-c3cc(S(=O)(=O)N4CCN(C)CC4)ccc3OCC)nc21` gave a half-maximal inhibitory concentration (IC50) in assay [1] of 130 nM. For `CCOc1ccc(S(=O)(=O)N2CCN(C)CC2)cc1-c1nc2c(=O)n(C)c(=O)n(CC3CC3)c2[nH]1`, the IC50 against Phosphodiesterase 1 was > 10000 nM; in assay [1], 28 nM; on Phosphodiesterase 6, 217 nM; on Phosphodiesterase 3, > 10000 nM. `CCOc1ccc(S(=O)(=O)N2CCN(C)CC2)cc1-c1nc2c(=O)n(C)c(=O)n(CC3CCCCC3)c2[nH]1` had an IC50 in assay [1] of 160 nM.

With `CC(C)Cn1c(=O)n(C)c(=O)c2[nH]c(-c3ccccc3F)nc21`, in assay [1], the IC50 was > 10000 nM. The same measure, in the same setting: as for `CC(C)COc1ccc(S(=O)(=O)N2CCN(C)CC2)cc1-c1nc2c([nH]1)c(=O)n(C)c(=O)n2CC(C)C`, the figure is 93 nM. In the case of `CCOc1ccccc1-c1nc2c(=O)n(C)c(=O)n(CC(C)C)c2[nH]1`, the Ratio in assay [2] worked out at 3.1. The values for the IC50 (in assay [1]; against Phosphodiesterase 6) were 73 nM and 227 nM, respectively. Regarding `CCCCOc1ccccc1-c1nc2c(=O)n(C)c(=O)n(CC(C)C)c2[nH]1`, the Ratio in assay [2] came to 3.2. The IC50 at Phosphodiesterase 6 turned out to be 436 nM.

For the compound `CCOc1ccc(S(=O)(=O)N2CCN(CC)CC2)cc1-c1nc2c([nH]1)c(=O)n(C)c(=O)n2CC(C)C`, the IC50 in assay [1] was 26 nM. Regarding `CCCOc1ccc(S(N)(=O)=O)cc1-c1nc2c([nH]1)c(=O)n(C)c(=O)n2CC(C)C`, the IC50 in assay [1] was 5 nM. For the compound `CCCOc1ccc(S(=O)(=O)N2CCN(CC)CC2)cc1-c1nc2c(=O)n(C)c(=O)n(CC(C)C)c2[nH]1`, in assay [2], the Ratio came out at 0.5. Besides, on Phosphodiesterase 6, the IC50 is 3 nM. In the case of `CCCCCOc1ccccc1-c1nc2c([nH]1)c(=O)n(C)c(=O)n2CC(C)C`, 551 nM corresponded to half-maximal inhibition in assay [1] (IC50). As for `CC(C)Cn1c(=O)n(C)c(=O)c2[nH]c(-c3cc(S(=O)(=O)N4CCN(C)CC4)ccc3OC(C)C)nc21`, in assay [2], the Ratio was 5. Moreover, the figures for the IC50 (in assay [1]; on Phosphodiesterase 6) were 16 nM and 77 nM, respectively. In assay [1], `CCOc1ccc(S(=O)(=O)N2CCN(CCO)CC2)cc1-c1nc2c([nH]1)c(=O)n(C)c(=O)n2CC(C)C` displayed an IC50 of 19 nM. Take `CCOc1ccc(S(=O)(=O)N2CCN(C)CC2)cc1-c1nc2c(=O)n(C)c(=O)n(CC(C)(C)C)c2[nH]1`: the IC50 in assay [1] came out at 91 nM; against Phosphodiesterase 6, 2380 nM; at Phosphodiesterase 3, 5570 nM. Consider `CCCOc1ccc(S(=O)(=O)N2CCN(CCOC)CC2)cc1-c1nc2c([nH]1)c(=O)n(C)c(=O)n2CC(C)C`, for which, in assay [1], 12 nM corresponded to half-maximal inhibition (IC50).

As to `CNc1ccccc1-c1nc2c([nH]1)c(=O)n(C)c(=O)n2CC(C)C`, the IC50 in assay [1] was > 10000 nM. As for `C=CCCn1c(=O)n(C)c(=O)c2nc(-c3cc(S(=O)(=O)N4CCN(C)CC4)ccc3OCC)[nH]c21`, the IC50 was > 10000 nM on Phosphodiesterase 1, 100 nM in assay [1], 5600 nM against Phosphodiesterase 6 and > 10000 nM on Phosphodiesterase 3.

Turning to `CCOc1ccc(S(=O)(=O)N2CCN(CC)CC2)cc1-c1nc2c(=O)n(C)c(=O)n(CC(C)C)c2[nH]1`, the Ratio in assay [2] turned out to be 7.5. The IC50 at Phosphodiesterase 6 is 203 nM.

As to `CCCOc1ccc(S(=O)(=O)N2CCN(CCN(C)C)CC2)cc1-c1nc2c(=O)n(C)c(=O)n(CC(C)C)c2[nH]1`, the Ratio in assay [2] was 1.5. Also, on Phosphodiesterase 6, the IC50 was determined as 37 nM. For the compound `CCOc1ccc(S(=O)(=O)N2CCN(C)CC2)cc1-c1nc2c([nH]1)c(=O)[nH]c(=O)n2C`, the IC50 in assay [1] is > 10000 nM. On to `CC(C)Cn1c(=O)n(C)c(=O)c2[nH]c(-c3ccccc3OC(C)C)nc21`, for which the Ratio in assay [2] was determined as 2.8. Further, the IC50 in assay [1] amounted to 77 nM; on Phosphodiesterase 6 it was 214 nM. On to `CCCOc1ccc(S(=O)(=O)N2CCN(CCO)CC2)cc1-c1nc2c(=O)n(C)c(=O)n(CC(C)C)c2[nH]1`, for which the Ratio in assay [2] worked out at 4. For the same compound, the IC50 worked out at 3.5 nM in assay [1] and 15 nM on Phosphodiesterase 6. Consider `CCCCOc1ccccc1-c1nc2c([nH]1)c(=O)n(C)c(=O)n2CC(C)C`, for which, in assay [1], the IC50 is 135 nM. Regarding `CCCOc1ccccc1-c1nc2c(=O)n(C)c(=O)n(CC(C)C)c2[nH]1`, in assay [2], the Ratio amounted to 1.4. For the same compound, the IC50 came to 60 nM in assay [1] and 87 nM against Phosphodiesterase 6. On to `CC(C)COc1ccccc1-c1nc2c([nH]1)c(=O)n(C)c(=O)n2CC(C)C`, for which, in assay [1], the IC50 turned out to be 105 nM.

As for `CCCn1c(=O)n(C)c(=O)c2[nH]c(-c3cc(S(=O)(=O)N4CCN(C)CC4)ccc3OCC)nc21`, the IC50 in assay [1] stood at 100 nM; against Phosphodiesterase 6, 345 nM.

Source of the values: ChEMBL document CHEMBL1136031, “8-Aryl xanthines potent inhibitors of phosphodiesterase 5” (Bioorg Med Chem Lett, 2002).
